Assay [1] can be described thus: Growth inhibition of human HL60 cells at 30 uM after 72 hrs by MTT assay. The class given is functional. As to conditions: HL-60, 72 h, read-out: GI.
The nature of assay [2]: Growth inhibition of human HL60 cells after 72 hrs by MTT assay. Particulars: HL-60, 72 h. The class given is functional, cell-based. A general note: Formazan colour is commonly taken as a measure of viable cells.
Assay [3] deals with SK-N-SH. The experiment in a line: Growth inhibition of human SK-N-SH cells at 30 uM after 72 hrs by MTT assay. Format: functional. Particulars: read-out: GI.
Assay [4] in a line: Growth inhibition of human MIAPaCa2 cells at 30 uM after 72 hrs by MTT assay. Format: functional. As to conditions: MIA PaCa-2, 72 h, read-out: GI.
The test system of assay [5] is MCF7. As to the kind of experiment: Growth inhibition of human MCF7 cells at 30 uM after 72 hrs by MTT assay. As to conditions: MCF7, 72 h, read-out: GI. The class given is functional.
In assay [6] the test system is HepG2. As to the kind of experiment: Growth inhibition of human HepG2 cells after 72 hrs by MTT assay. As to conditions: HepG2, 72 h. The class given is functional, cell-based.
The subject of assay [7] is SK-N-SH. As to the kind of experiment: Growth inhibition of human SK-N-SH cells after 72 hrs by MTT assay. The class given is functional, cell-based.
Assay [8] relates to MCF7. As to the kind of experiment: Growth inhibition of human MCF7 cells after 72 hrs by MTT assay. Format: functional, cell-based. Particulars: MCF7, 72 h.
Assay [9] concerns SK-N-SH. The experiment in a line: Growth inhibition of human SK-N-SH cells at 50 uM after 72 hrs by MTT assay. Particulars: read-out: GI. The class given is functional.
A short description of assay [10]: Growth inhibition of human MIAPaCa2 cells at 50 uM after 72 hrs by MTT assay. Format: functional. Particulars: MIA PaCa-2, 72 h, read-out: GI.
A short description of assay [11]: Growth inhibition of human MIAPaCa2 cells after 72 hrs by MTT assay. The class given is functional, cell-based. As to conditions: MIA PaCa-2, 72 h.
The nature of assay [12]: Growth inhibition of human HL60 cells after 24 hrs by MTT assay. Format: functional, cell-based. As to conditions: HL-60, 24 h.
Assay [13] has as its system HepG2. As to the kind of experiment: Growth inhibition of human HepG2 cells at 50 uM after 72 hrs by MTT assay. Format: functional. As to conditions: HepG2, 72 h, read-out: GI.
Assay [14] relates to HepG2. The experiment in a line: Growth inhibition of human HepG2 cells at 30 uM after 72 hrs by MTT assay. The class given is functional. As to conditions: HepG2, 72 h, read-out: GI.
Assay [15] deals with MCF7. As to the kind of experiment: Growth inhibition of human MCF7 cells at 50 uM after 72 hrs by MTT assay. Format: functional. As to conditions: MCF7, 72 h, read-out: GI.
Assay [16] in a line: Growth inhibition of human HL60 cells at 50 uM after 72 hrs by MTT assay. The class given is functional. As to conditions: HL-60, 72 h, read-out: GI.

Data on ten compounds can be found in ChEMBL document CHEMBL3407403, “Synthetic modification of hydroxychavicol by Mannich reaction and alkyne-azide cycloaddition derivatives depicting cytotoxic potential” (Eur J Med Chem, 2015).

pIC50: −log10 of the molar value.

The pIC50 is −log10 of the IC50, conventionally taken in molar units. Read a low pIC50 as a large IC50. Regarding `C=CCc1cc(O)c(O)c(CN2CCC(Cc3ccccc3)CC2)c1`, the inhibition of growth at 30 µM in assay [1] was found to be 90.6%; in the assay on SK-N-SH [3], 78.8%; in assay [4] it was 88.9%; in the assay with MCF7 [5], 70.9%; in the assay with HepG2 [14], 70.2%. Moreover, the pIC50 in [2] was 5.52; in the assay with HepG2 [6] it was 4.66; with SK-N-SH [7], 4.96; in the assay with MCF7 [8], 4.80; in assay [11], 5.40; in [12], 4.82. Moreover, the inhibition of growth at 50 µM in the assay on SK-N-SH [9] was 83.4%; in [10], 90.9%; in the assay with HepG2 [13] it was 84%; in the assay with MCF7 [15] it was 86.3%; in assay [16] it was 94.4%.

Take `C=CCc1ccc(OCc2cn(-c3ccc(C#N)cc3)nn2)c(O)c1`: the inhibition of growth at 30 µM in [1] amounted to 20.8%; in the assay with SK-N-SH [3] it was 37.5%; in assay [4], 39.3%; in the assay with MCF7 [5], 35.7%; in the assay on HepG2 [14], 1.5%. Moreover, the inhibition of growth at 50 µM is 62.5% with SK-N-SH [9]; 45.9% in assay [10]; 12.1% in the assay on HepG2 [13]; 35.6% in the assay on MCF7 [15]; 31.8% in assay [16].

For the compound `C=CCc1ccc(OCc2cn(-c3ccc(OC)cc3)nn2)c(O)c1`, the inhibition of growth at 30 µM is 21.3% in assay [1]; 31.5% in the assay on SK-N-SH [3]; 62.3% in assay [4]; 38.8% in the assay on MCF7 [5]; 15.4% in the assay on HepG2 [14]. The inhibition of growth at 50 µM came out at 68.5% in the assay with SK-N-SH [9]; 88.2% in assay [10]; 49.9% in the assay on HepG2 [13]; 57.2% in the assay on MCF7 [15]; 38.9% in assay [16].

As to `C=CCc1cc(O)c(O)c(CN2CCC(C)CC2)c1`, the inhibition of growth at 30 µM turned out to be 91.1% in assay [1]; 74.7% in the assay with SK-N-SH [3]; 91.5% in [4]; 41.7% in the assay on MCF7 [5]; 57.6% in the assay on HepG2 [14]. In addition, the inhibition of growth at 50 µM in the assay on SK-N-SH [9] turned out to be 84.2%; in assay [10], 90.6%; with HepG2 [13], 69.7%; in the assay on MCF7 [15], 54.2%; in assay [16], 91.8%.

`C=CCc1cc(O)c(O)c(CN2CCN(c3ccc(C(C)=O)cc3)CC2)c1`: the inhibition of growth at 30 µM in [1] is 87.9%; with SK-N-SH [3], 53.8%; in [4] it was 86.2%; with MCF7 [5], 42.8%; in the assay with HepG2 [14], 46.1%. In addition, the inhibition of growth at 50 µM in the assay on SK-N-SH [9] is 54.6%; in assay [10], 75.1%; in the assay with HepG2 [13], 65.9%; in the assay with MCF7 [15], 47.1%; in [16], 89.2%.

Turning to `C=CCc1ccc(OCc2cn(-c3ccccc3CO)nn2)c(O)c1`, the inhibition of growth at 30 µM in [1] was found to be 31.7%; in the assay on SK-N-SH [3], 12.9%; in [4], 39.6%; in the assay with MCF7 [5], 34.5%; in the assay on HepG2 [14], 4.2%. Also, the inhibition of growth at 50 µM with SK-N-SH [9] worked out at 87.1%; in assay [10] it was 52.1%; with HepG2 [13], 8.5%; with MCF7 [15], 40.4%; in assay [16] it was 47.1%.

In the case of `C=CCc1cc(O)c(O)c(CN2CCOCC2)c1`, the inhibition of growth at 30 µM in assay [1] was determined as 89.8%; with SK-N-SH [3], 49.6%; in [4], 54.4%; in the assay on MCF7 [5] it was 33.5%; in the assay on HepG2 [14] it was 2.1%. Further, the inhibition of growth at 50 µM in the assay with SK-N-SH [9] is 86.1%; in assay [10], 67.5%; in the assay with HepG2 [13] it was 6.5%; in the assay with MCF7 [15] it was 48.9%; in assay [16], 90.5%.

`C=CCc1ccc(OCc2cn(-c3ccc(C(=O)c4ccccc4)cc3)nn2)c(O)c1`: the inhibition of growth at 30 µM is 38.3% in assay [1]; 41.9% with SK-N-SH [3]; 40.1% in [4]; 40.3% in the assay with MCF7 [5]; 14.8% in the assay on HepG2 [14]. Besides, the inhibition of growth at 50 µM in the assay with SK-N-SH [9] was found to be 58.1%; in assay [10], 53.7%; with HepG2 [13], 16.2%; with MCF7 [15] it was 35.6%; in assay [16], 40.5%.

For the compound `C=CCc1ccc(OCc2cn(-c3cccc(C#N)c3)nn2)c(O)c1`, the inhibition of growth at 30 µM in assay [1] is 22.5%; in the assay on SK-N-SH [3], 21.2%; in assay [4], 26.6%; in the assay on MCF7 [5] it was 31.9%; in the assay with HepG2 [14], 2.3%. Further, the inhibition of growth at 50 µM is 78.8% in the assay on SK-N-SH [9]; 41.6% in assay [10]; 3.4% in the assay with HepG2 [13]; 33.4% in the assay with MCF7 [15]; 30.9% in [16].

`C=CCc1cc(O)c(O)c(CN2CCN(C)CC2)c1`: the inhibition of growth at 30 µM in assay [1] was 42.1%; in the assay on SK-N-SH [3] it was 24.7%; in assay [4], 46.8%; in the assay with MCF7 [5] it was 22.8%; in the assay with HepG2 [14], 1.5%. The inhibition of growth at 50 µM is 30.8% in the assay on SK-N-SH [9]; 69.5% in assay [10]; 6.3% with HepG2 [13]; 35.1% in the assay on MCF7 [15]; 53.4% in assay [16].
